Test results from patent publication US8637528B2, “Use of PDE7 inhibitors for the treatment of movement disorders” (Omeros Corporation, priority 2007, dated 2014).

Assays:
[1] = tested on: MPTP-treated mice; test: inked paw stride length in the MPTP mouse model of Parkinson's disease, confirmatory study (Example 6); assay type: in vivo; set-up: key to Letter Designation (statistical group of stride length): A: Groups that share a letter are not statistically different; groups that do not share a letter are significantly different from each other.; B: Groups that share a letter are not statistically different; groups that do not share a letter are significantly different from each other.; C: Groups that share a letter are not statistically different; groups that do not share a letter are significantly different from each other; settings: for Letter Designation (statistical group of stride length): No treatment = A, MPTP = B; for Stride length (cm) MEAN ± SEM: MPTP-lesioned mice, 20 minutes after dosing
Procedure: Adult male C57BL/6J; retired breeders, aged between 7-9 months (Jackson Laboratory, Bar Harbor, Me., USA), singly housed.
MPTP Mice received 2 subcutaneous injections of methylphenyltetrahydropyridine (“MPTP”) at a dose of 15 mg/kg (free base) with a 10-12 hour interval between injections. Control mice (sham lesion groups) were administered saline instead of MPTP.
Seven days after MPTP/saline administration, OM69 was administered to mice. For each dose, a 100× stock of OM69 was prepared in 100% DMSO and subsequently diluted 100× into phosphate buffered saline (PBS). Then 100 μL of this 1× solution was administered intraperitoneally (IP).
Prior to injection with MPTP or saline, animals were pre-trained to walk across a clean sheet of paper into their home cage without stopping. For assessment of stride length, animals had their forepaws placed in black ink and the length of forepaw steps during normal walking (in a straight line only) was measured. The animals were immediately put back into their home cage upon completion of the task. Stride length was determined by measuring the distance between each step on the same side of the body, measuring from the middle toe of the first step to the heel of the second step. An average of at least four clear steps was calculated.
Data was analyzed using Prism 4.0 software. Groups were analyzed by one way ANOVA and Student-Newman-Keuls post hoc test when appropriate. Significance was considered reached at p<0.05. Treatment groups in the stride length graph that are statistically different are indicated by the letters in Table 6.
Retired breeder male mice (28 animals total) were treated with 2×15 mg/kg MPTP (12 saline; […]) to induce a Parkinsonian state (neurochemical loss of dopamine with corresponding behavioral deficits). On day 1 baseline stride length was measured and then all mice were treated with MPTP or saline. On day 8 stride length was measured again, and then the MPTP-treated animals were divided randomly into two groups of fourteen. As described in Example 5, dosing with the successive treatments indicated in FIG. 12 occurred on consecutive days, and in each case stride length was measured 20 minutes after dosing.
On Day 9, Group 1 animals were treated with OM69 (0.01 mg/kg) and Group 2 were treated with L-dopa (1 mg/kg). On Day 10, Group 1 animals were treated with OM69 (0.03 mg/kg) and Group 2 were treated with L-dopa (5 mg/kg). On Day 11, Group 1 animals were treated with OM69 (0.05 mg/kg) and Group 2 were treated with OM69 (0.1 mg/kg). On Day 12, Group 1 was treated with OM69 (0.07 mg/kg).
Next, for combination studies, the two groups were combined. On Day 14, all the animals were treated with both L-dopa (1 mg/kg) and OM69 (0.01 mg/kg). On Day 15, all the animals were treated with L-dopa (1 mg/kg) in combination with a higher dose of OM69 (0.03 mg/kg).

[2] = target: Dopamine Transporter (DAT) (Homo sapiens (Human), UniProt Q01959); test: Dopamine Transporter (DAT) radioligand binding assay; settings: 10.0 μM
[3] = target: Dopamine D4.2 receptor (Homo sapiens (Human), UniProt P21917, DEL265-296); test: Dopamine D4.2 radioligand binding assay; settings: 10.0 μM
[4] = target: Dopamine D1 receptor (Homo sapiens (Human), UniProt P21728); test: Dopamine D1 radioligand binding assay; settings: 10.0 μM
[5] = target: PDE7A (Homo sapiens (Human), UniProt Q13946); test: initial PDE7A inhibition assay, different assay methodology; assay type: biochemical; settings: read-out: PDE7A IC50 in the initial assay work
Sequence of PDE7A (Q13946 whole entry, species assumed): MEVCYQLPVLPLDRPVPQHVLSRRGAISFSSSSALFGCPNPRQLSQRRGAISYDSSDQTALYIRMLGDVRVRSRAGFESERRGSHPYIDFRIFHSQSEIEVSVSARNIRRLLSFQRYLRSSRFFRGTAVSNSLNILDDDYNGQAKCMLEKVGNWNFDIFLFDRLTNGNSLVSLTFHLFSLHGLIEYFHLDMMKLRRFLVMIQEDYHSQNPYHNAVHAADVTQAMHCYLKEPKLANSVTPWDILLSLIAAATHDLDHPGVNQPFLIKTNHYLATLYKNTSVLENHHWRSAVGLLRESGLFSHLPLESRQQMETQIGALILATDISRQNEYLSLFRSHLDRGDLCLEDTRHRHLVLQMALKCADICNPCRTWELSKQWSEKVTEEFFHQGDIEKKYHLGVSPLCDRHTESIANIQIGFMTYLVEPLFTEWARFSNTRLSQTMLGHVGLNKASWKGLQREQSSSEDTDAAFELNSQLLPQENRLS

[6] = target: Dopamine D3 receptor (Homo sapiens (Human), UniProt P35462); test: Dopamine D3 radioligand binding assay; settings: 10.0 μM
Sequence of Dopamine D3 receptor (P35462 whole entry): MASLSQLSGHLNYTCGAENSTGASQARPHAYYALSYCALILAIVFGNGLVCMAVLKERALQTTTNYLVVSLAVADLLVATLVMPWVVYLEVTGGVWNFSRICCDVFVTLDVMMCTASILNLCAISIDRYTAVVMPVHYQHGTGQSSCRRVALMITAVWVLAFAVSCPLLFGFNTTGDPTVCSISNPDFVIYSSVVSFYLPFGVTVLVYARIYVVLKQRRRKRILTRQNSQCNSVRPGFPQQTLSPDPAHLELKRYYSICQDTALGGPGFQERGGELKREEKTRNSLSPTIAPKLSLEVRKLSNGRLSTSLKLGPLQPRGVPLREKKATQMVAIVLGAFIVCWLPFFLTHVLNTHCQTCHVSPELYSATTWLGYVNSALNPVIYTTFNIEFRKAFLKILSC

[7] = target: PDE7B (Homo sapiens (Human), UniProt Q9NP56); test: initial PDE7B inhibition assay, different assay methodology; assay type: biochemical; settings: reliability questioned
Sequence of PDE7B (Q9NP56 whole entry, species assumed): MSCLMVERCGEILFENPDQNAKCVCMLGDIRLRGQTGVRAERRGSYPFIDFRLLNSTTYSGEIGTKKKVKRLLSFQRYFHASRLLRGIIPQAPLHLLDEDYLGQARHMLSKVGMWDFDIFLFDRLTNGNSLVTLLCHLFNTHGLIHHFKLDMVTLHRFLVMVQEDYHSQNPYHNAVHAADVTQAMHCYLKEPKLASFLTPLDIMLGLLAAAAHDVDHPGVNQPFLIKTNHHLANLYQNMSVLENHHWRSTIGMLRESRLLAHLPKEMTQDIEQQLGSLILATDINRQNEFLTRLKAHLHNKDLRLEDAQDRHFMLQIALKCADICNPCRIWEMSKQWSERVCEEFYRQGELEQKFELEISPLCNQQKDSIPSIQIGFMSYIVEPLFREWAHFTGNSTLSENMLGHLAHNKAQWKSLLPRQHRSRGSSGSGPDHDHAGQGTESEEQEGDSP

[8] = target: Tyrosine Hydroxylase (Rattus norvegicus (Rat), UniProt P04177); test: Tyrosine Hydroxylase enzyme assay; assay type: biochemical; settings: 10.0 μM
Sequence of Tyrosine Hydroxylase (P04177 whole entry): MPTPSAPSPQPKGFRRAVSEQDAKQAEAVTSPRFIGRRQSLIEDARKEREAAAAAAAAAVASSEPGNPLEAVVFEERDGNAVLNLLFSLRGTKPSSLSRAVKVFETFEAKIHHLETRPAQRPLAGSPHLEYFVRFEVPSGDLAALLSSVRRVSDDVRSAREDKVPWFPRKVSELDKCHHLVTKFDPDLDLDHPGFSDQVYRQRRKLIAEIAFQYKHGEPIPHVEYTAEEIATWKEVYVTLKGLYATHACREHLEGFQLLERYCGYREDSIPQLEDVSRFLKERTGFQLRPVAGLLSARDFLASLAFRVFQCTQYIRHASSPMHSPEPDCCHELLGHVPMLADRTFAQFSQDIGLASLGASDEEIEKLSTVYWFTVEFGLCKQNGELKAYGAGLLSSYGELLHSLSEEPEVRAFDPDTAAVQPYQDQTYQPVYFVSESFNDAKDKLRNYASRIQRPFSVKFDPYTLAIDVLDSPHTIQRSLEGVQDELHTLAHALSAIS
Procedure: Tyrosine Hydroxylase was assayed as described in Roskoski, R., Jr., et al., J. Biochem 218:363-370 (1993) with the following modifications. Tyrosine Hydroxylase was isolated from Wistar rat brain. The substrate was 100 μM L-[3,5-^3H]Tyrosine+L-Tyrosine. The vehicle control was 1% DMSO. Compound OM69 was tested at 10 μM in incubation buffer (125 mM MES, pH 6.0, 0.5 mg/ml Catalase, 12.5 mM DTT, 0.5 mM (6R)-5,6,7,8-Tetrahydrobiopterin). The reaction was pre-incubated for 15 minutes at 37° C. Tyrosine Hydroxylase enzyme was added, and the reaction was incubated for 20 minutes at 37° C. [^3H]-H20 was quantitated.

[9] = target: gabapentin receptor (Rattus norvegicus, UniProt P54290); test: Gabapentin radioligand binding assay; settings: 10.0 μM
Sequence of gabapentin receptor (P54290 25-944 limits assumed): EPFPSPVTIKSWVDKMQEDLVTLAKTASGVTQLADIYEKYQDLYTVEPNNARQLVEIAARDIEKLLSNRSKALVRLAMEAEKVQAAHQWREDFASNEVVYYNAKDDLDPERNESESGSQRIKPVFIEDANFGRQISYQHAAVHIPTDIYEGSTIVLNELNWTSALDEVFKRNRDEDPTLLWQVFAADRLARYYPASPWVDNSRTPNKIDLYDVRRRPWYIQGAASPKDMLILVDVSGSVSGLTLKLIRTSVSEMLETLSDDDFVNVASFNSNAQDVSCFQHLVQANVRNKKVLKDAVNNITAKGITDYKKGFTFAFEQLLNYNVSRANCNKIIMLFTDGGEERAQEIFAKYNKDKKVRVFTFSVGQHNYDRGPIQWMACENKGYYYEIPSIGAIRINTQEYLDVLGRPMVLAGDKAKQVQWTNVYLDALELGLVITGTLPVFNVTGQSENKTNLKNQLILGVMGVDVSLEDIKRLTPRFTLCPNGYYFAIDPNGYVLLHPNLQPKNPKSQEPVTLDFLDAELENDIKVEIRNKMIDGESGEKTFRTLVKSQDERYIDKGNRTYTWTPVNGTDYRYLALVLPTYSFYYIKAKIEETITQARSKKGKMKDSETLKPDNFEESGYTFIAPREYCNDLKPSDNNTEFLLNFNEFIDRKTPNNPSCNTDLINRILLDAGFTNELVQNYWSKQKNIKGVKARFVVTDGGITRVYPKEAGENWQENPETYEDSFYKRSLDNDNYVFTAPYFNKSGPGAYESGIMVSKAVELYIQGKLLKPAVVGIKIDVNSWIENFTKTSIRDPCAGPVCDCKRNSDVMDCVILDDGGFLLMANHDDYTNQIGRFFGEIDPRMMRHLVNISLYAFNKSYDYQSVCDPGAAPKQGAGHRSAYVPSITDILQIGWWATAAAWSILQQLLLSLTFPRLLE
Sequence of gabapentin receptor (P54290 945-1091 limits assumed): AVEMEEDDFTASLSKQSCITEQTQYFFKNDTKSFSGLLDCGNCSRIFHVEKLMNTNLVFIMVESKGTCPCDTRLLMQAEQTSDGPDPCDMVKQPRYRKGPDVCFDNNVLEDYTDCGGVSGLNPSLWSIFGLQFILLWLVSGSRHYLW

[10] = target: Dopamine D5 receptor (Homo sapiens (Human), UniProt P21918); test: Dopamine D5 radioligand binding assay; settings: 10.0 μM
Sequence of Dopamine D5 receptor (P21918 whole entry): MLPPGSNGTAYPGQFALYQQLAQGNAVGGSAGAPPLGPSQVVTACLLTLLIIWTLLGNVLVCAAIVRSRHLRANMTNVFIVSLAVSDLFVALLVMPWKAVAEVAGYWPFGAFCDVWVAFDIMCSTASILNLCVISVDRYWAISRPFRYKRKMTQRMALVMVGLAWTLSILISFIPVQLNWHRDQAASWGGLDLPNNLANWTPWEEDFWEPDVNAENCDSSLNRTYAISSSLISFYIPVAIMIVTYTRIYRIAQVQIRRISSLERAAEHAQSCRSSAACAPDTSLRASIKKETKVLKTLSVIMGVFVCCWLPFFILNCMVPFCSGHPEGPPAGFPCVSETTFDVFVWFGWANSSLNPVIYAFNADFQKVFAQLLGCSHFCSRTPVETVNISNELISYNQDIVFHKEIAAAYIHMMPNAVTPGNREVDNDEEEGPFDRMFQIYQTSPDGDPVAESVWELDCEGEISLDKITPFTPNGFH

[11] = target: Catechol-O-Methyltransferase (COMT) (Sus scrofa, UniProt D3K5L3); test: biochemical; assay type: biochemical, pig; settings: 10.0 μM
Sequence of Catechol-O-Methyltransferase (COMT) (D3K5L3 1-270): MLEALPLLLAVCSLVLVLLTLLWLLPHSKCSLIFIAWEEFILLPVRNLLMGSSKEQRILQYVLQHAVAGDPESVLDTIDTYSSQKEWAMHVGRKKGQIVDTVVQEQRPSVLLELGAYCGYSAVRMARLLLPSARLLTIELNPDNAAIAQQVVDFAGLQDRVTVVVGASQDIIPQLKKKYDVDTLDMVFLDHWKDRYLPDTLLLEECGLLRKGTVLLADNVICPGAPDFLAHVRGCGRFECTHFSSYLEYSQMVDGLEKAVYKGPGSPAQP

[12] = target: Dopamine D2L receptor (Homo sapiens (Human), UniProt P14416); test: Dopamine D2L radioligand binding assay; settings: 10.0 μM
Sequence of Dopamine D2L receptor (P14416 whole entry): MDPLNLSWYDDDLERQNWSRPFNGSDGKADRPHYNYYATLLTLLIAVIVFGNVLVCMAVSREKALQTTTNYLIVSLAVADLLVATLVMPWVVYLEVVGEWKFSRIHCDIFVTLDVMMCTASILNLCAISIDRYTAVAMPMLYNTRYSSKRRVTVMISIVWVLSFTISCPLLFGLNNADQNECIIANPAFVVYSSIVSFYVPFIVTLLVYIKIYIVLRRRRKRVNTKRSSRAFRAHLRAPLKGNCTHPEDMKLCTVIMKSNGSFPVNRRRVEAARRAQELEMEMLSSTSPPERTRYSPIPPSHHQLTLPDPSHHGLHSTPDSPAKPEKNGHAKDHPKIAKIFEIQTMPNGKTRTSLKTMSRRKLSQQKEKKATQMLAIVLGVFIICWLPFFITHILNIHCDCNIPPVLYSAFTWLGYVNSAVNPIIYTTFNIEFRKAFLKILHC

[13] = target: Monoamine Oxidase MAO-B (Homo sapiens (Human), UniProt P27338); test: Monoamine Oxidase MAO-B enzyme assay; assay type: biochemical
Sequence of Monoamine Oxidase MAO-B (P27338 whole entry, looked up): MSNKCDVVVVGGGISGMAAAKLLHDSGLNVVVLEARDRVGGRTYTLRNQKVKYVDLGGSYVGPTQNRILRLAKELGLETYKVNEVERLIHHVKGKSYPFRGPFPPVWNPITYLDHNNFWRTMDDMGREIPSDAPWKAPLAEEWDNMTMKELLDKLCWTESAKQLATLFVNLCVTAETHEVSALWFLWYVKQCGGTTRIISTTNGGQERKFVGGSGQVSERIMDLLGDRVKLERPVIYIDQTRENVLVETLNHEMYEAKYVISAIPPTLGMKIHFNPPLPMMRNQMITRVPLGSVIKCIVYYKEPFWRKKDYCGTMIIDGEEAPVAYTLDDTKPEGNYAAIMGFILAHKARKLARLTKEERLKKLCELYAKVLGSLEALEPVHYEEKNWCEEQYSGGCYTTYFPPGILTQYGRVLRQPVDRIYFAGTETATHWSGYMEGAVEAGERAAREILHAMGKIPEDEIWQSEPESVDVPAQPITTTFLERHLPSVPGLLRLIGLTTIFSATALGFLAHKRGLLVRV

N[C@@H](Cc1ccc(O)c(O)c1)C(=O)O [L-dopa, levodopa, reference compound]
Letter Designation (statistical group of stride length) ([1]; 1 mg/kg L-DOPA): B
Letter Designation (statistical group of stride length) ([1]; 5 mg/kg L-DOPA): A
Stride length (cm) MEAN ± SEM ([1]; 1 mg/kg L-DOPA): 5.78 ± 0.09 cm
Stride length (cm) MEAN ± SEM ([1]; 5 mg/kg L-DOPA): 7.29 ± 0.07 cm
effect on stride length, in words ([1]; MPTP-treated mice, 1 mg/kg L-dopa): did not result in a significant increase in stride length
effect on stride length, in words ([1]; MPTP-treated mice, 5 mg/kg L-dopa): returned stride length to control (unlesioned) values

COc1cc(N)ccc1-c1cc2c(c(=O)[nH]1)C(C1CCCCC1)N=[N+]2C (stereo not shown) [OM69]
percent inhibition of ligand binding to Dopamine Transporter (DAT) [2]: 18.0%
percent inhibition of ligand binding to Dopamine D4.2 [3]: −16.0%
percent inhibition of ligand binding to Dopamine D1 [4]: −5.0%
IC50 [5]: 3.5 nM
percent inhibition of ligand binding to Dopamine D3 [6]: −13.0%
IC50 [7]: 96.9 nM
percent inhibition of Tyrosine Hydroxylase enzymatic activity [8]: 4.0%
percent inhibition of ligand binding, Gabapentin [9]: 15.0%
Letter Designation (statistical group of stride length) ([1]; 0.01 mg/kg OM69): B
Letter Designation (statistical group of stride length) ([1]; 0.03 mg/kg OM69): B
Letter Designation (statistical group of stride length) ([1]; 0.05 mg/kg OM69): C
Letter Designation (statistical group of stride length) ([1]; 0.07 mg/kg OM69): C
Letter Designation (statistical group of stride length) ([1]; 0.1 mg/kg OM69): A
Stride length (cm) MEAN ± SEM ([1]; 0.01 mg/kg OM69 IP): 5.77 ± 0.17 cm
Stride length (cm) MEAN ± SEM ([1]; 0.03 mg/kg OM69 IP): 5.93 ± 0.14 cm
Stride length (cm) MEAN ± SEM ([1]; 0.05 mg/kg OM69 IP): 6.38 ± 0.14 cm
Stride length (cm) MEAN ± SEM ([1]; 0.07 mg/kg OM69 IP): 6.65 ± 0.18 cm
Stride length (cm) MEAN ± SEM ([1]; 0.1 mg/kg OM69 IP): 7.23 ± 0.07 cm
potency relative to L-dopa in restoring stride length ([1]; MPTP-treated mice): approximately 50 fold
effect on stride length, in words ([1]; MPTP-treated mice, 0.1 mg/kg OM69): returned stride length to control (unlesioned) values
dose dependence of the effect on stride length, in words ([1]; MPTP-treated mice, FIG. 18): increases stride length in MPTP-treated mice in a dose-dependent manner
effect on stride length, in words ([1]; MPTP-treated mice, intermediate doses of OM69): statistically significant (p<0.05) increase in stride length
effect on stride length, in words ([1]; MPTP-treated mice, low doses of OM69 (0.01 mg/kg or 0.03 mg/kg)): did not increase stride length
percent inhibition of ligand binding to Dopamine D5 [10]: 4.0%
percent inhibition of COMT enzymatic activity [11]: 19.0%
percent inhibition of ligand binding to Dopamine D2L [12]: 4.0%
percent inhibition of MAO-B enzymatic activity ([13]; Exp #1, 10.0 μM): 49.0%
percent inhibition of MAO-B enzymatic activity ([13]; Exp #2, 1.0 μM): 27%
percent inhibition of MAO-B enzymatic activity ([13]; Exp #2, 10.0 μM): 67.0%
IC50 ([13]; estimated from 27% inhibition at 1 μM, read-out: MAO-B IC50 indicated by the percentage inhibition): ~2700 nM
inhibition of MAO-B at brain concentration ([13]; if present in the brain at 17 nM): less than 0.7%
